# In US20140288110A1, “PPAR MODULATORS” (EVOLVA SA, priority 2006, published 2014):
# Assays:
# [1] = tested on: PPARgamma ligand-binding domain (Gal4-PPARgammaLBD); experiment: PPARgamma transactivation assay (Gal4-PPARgammaLBD, UASx4-TK luc reporter); assay type: cell-based; details: for PPAR: PPARgamma activating activity compared with 10 microM DPD (SN1)
# Excerpt: This is an example of a transactivation assay for determining PPAR gamma modulating activity.
# The UASx4-TK-luc reporter construct (where UAS refers to “upstream activator sequence”) contains four Gal4-responsive elements. The plasmid Gal4-PPARgammaLBD encodes a Gal4-DBD-PPARgamma-LBD fusion protein (i.e. the DNA-binding domain, DBD, of Gal4 fused to the ligand-binding domain, LBD, of PPARgamma) capable of transactivating the UASx4-TK-luc reporter plasmid by binding to the UAS. The CMV-beta-galactosidase plasmid (where CMV is cytomegalovirus) is used for normalization of experimental values.
# The cells were replated, typically in 24 well plates, so that at the time of transfection the cells are 50-70% confluent.
# Briefly, per well in a 24 well plate, UASx4TKluc (0.2 microg) Gal4-PPARgammaLBD (or pM-hPPARgamma-LBD; 0.1 microg) and CMV-beta-galactosidase (0.05 microg) in 30 μL DMEM (free of serum and antibiotics) is mixed with 30 microL DMEM (free of serum and antibiotics) containing 1 microL metafectenein. The mixture is incubated at room temperature for 20 min to allow formation of nucleic acid-lipid complexes and then approximately 60 microL is added to each well containing the 50-60% confluent cells. […] Cells were harvested after 12-24 hours and luciferase and beta-galactosidase activities were measured according to standard protocols.
# “−” means that testing was not performed.
# 3T3-L1 / MEFs = experiment: Adipocyte differentiation assay, induction, Oil Red O staining; assay type: cell-based, mouse; set-up: key to Adip.: 0: representing similar results to DPD; −1: representing even less adipocyte differentiation; +1: representing more adipocyte differentiation (both relative to DPD); details: for Adip.: adipocyte differentiation relative to DPD (SN1), Oil Red O staining; for induction of adipocyte differentiation (red staining), in words: induction assay, Oil Red O
# Method: This example describes an assay for determining adipocyte differention. Compounds are tested to see whether they induce adipocyte differentiation and also to see whether they inhibit adipocyte differention.
# MEFs were grown in AmnioMax basal medium (Gibco) supplemented with 7.5% Amniomax supplement C-100 (Gibco), 7.5% Fetal Bovine Serum (FBS), 2 mM Glutamine, 62.5 μg/ml penicillin and 100 μg/ml Streptomycin (growth medium). At confluence, MEFs were induced to differentiation in growth medium with the addition of 1 microM dexamethasone (Sigma) 0.5 mM isobutylmethylxanthine (Sigma), 5 microg/ml insulin (Sigma) and 10 microM test compound dissolved in DMSO or DMSO alone. Medium was subsequently renewed every 48 hrs with growth media supplemented with 5 microg/ml Insulin and ligand or DMSO.
# Briefly, to test compounds as inducers of adipocyte differentiation, 3T3-L1 are grown to confluence in DMEM with 10% Calf serum (CS), typically in 24 well dishes. At 2 days post confluence (day 0), cells are induced to differentiate with DMEM supplemented with 10% fetal bovine serum (FBS), 1 μM dexamethasone and the test compound ([…], 1 and 10 microM). BRL49653 (1.0 μM dissolved in 100% Me2SO) is used as a positive control. After 48 h, the cells are re-fed with DMEM containing 10% FBS supplemented with the test compound or the positive control. From day 4, cells are grown in DMEM with 10% FBS and are changed every second day until day 8. At day 8, cells are stained with Oil Red O as described below.
# Cells cultured as described above are used for Oil Red staining. Dishes are washed in PBS and cells were fixed in 3.7% paraformaldehyde for 1 h and stained with oil red O as described in (Hansen et al 1999). Oil red O solution stock solution is prepared by dissolving 0.5 g of Oil Red O (Sigma) in 100 ml of isopropanol. Oil re O working solution is prepared by diluting a stock solution with water (6:4) followed by filtration.
# Table II summarizes results obtained with different analogs of DPD (SN1), “0” representing similar results to DPD, “−1” representing even less adipocyte differentiation, “+1” representing more adipocyte differentiation (both relative to DPD) and “−” meaning not assayed.
# mPPARalphaLBD = target: T1, mPPARalphaLBD (Mus musculus, UniProt P23204); experiment: PPARalpha transactivation assay (mPPARalphaLBD); assay type: cell-based
# T1 construct: expressed in transfected cells
# T1 sequence (P23204 239-466 limits assumed): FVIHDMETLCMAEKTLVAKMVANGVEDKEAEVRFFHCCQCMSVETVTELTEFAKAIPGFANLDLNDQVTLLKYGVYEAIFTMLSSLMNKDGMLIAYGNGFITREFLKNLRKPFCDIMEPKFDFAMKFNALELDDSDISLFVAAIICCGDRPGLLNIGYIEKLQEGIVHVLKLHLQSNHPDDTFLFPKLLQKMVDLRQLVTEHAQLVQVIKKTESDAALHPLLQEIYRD
# Method: This example describes a transactivation assay for determining PPARalpha modulating activity.
# DPD and other ligands are tested for their ability to transactivate PPAR alpha essentially as described in Example 1.
Compound,Adip. (3T3-L1 / MEFs),other results
CC1(C)OC[C@@H](C/C=C\CCCCC(=O)O)[C@@H](c2ccccc2O)O1 [compound 36],,PPAR [1]: Inactive
O=C(O)CCC/C=C\C[C@@H]1CO[C@H](c2ccccc2Cl)O[C@@H]1c1ccccc1O [compound 23],+1,
O=C(O)CCCCCCC[C@@H]1CO[C@H](c2ccccc2Cl)O[C@@H]1c1ccccc1O [compound 31],0,
O=C(O)CC/C=C\C[C@@H]1COC(c2ccccc2F)O[C@@H]1c1ccccc1O (mixture of isomers) [compound 4],0,
COc1ccccc1[C@H]1OC[C@@H](C/C=C\CCC(=O)O)[C@@H](c2ccccc2O)O1 [compound 18],−1,
C/C=C/CC1OC[C@@H](C/C=C\CCC(=O)O)[C@@H](c2ccccc2O)O1 (stereo partly drawn) [compound 12],−1,
O=C(O)CC/C=C\C[C@@H]1COC(c2cccc3c2OCO3)O[C@@H]1c1ccccc1O (mixture of isomers) [compound 5],0,PPAR [1]: P−
CCCCCC1OC[C@@H](C/C=C\CCC(=O)O)[C@@H](c2ccccc2O)O1 (stereo partly drawn) [compound 11],+1,
"CC(C)(Sc1ccc(CCN(CCCCC2CCCCC2)C(=O)NC2CCCCC2)cc1)C(=O)O [GW7647, reference compound]",,increase of PPAR alpha transactivation (mPPARalphaLBD): over 2 fold
O=C(O)CC/C=C\C[C@@H]1CO[C@H](c2ccccc2Cl)O[C@@H]1c1ccccc1O [compound 1],0,
O=C(O)CC/C=C\C[C@@H]1COC2(CCNCC2)O[C@@H]1c1ccccc1O [compound 8],−1,PPAR [1]: Boc derivative Inactive
CC(C)[C@H]1OC[C@@H](C/C=C\CCC(=O)O)[C@@H](c2ccccc2O)O1 [compound 20],0,
O=C(O)CC/C=C\C[C@@H]1COC(c2cccc(Cl)c2Cl)O[C@@H]1c1ccccc1O (stereo partly drawn) [compound 2],0,
O=C(O)CC/C=C\C[C@@H]1COC2(CCCCC2)O[C@@H]1c1ccccc1O [compound 6],0,
O=C(O)CC/C=C\C[C@@H]1COC(c2ccccc2-c2ccccc2)O[C@@H]1c1ccccc1O (mixture of isomers) [compound 10],0,"PPAR gamma modulating activity, in words [1]: PPAR gamma antagonist; PPAR [1]: Antagonist"
O=C(O)CC/C=C\C[C@@H]1CO[C@H](C2CCCCC2)O[C@@H]1c1ccccc1O [compound 21],0,
O=C(O)CC/C=C\C[C@@H]1COC(c2ccccc2Cl)O[C@@H]1c1ccccc1O (stereo partly drawn) [compound 27],,PPAR [1]: Inactive
O=C(O)CC/C=C\C[C@@H]1COC(c2cccc3ccccc23)O[C@@H]1c1ccccc1O (stereo partly drawn) [compound 9],0,
COc1ccc(Oc2ccccc2C2OC[C@@H](C/C=C\CCC(=O)O)[C@@H](c3ccccc3O)O2)cc1 (mixture of isomers) [compound 7],0,"induction of adipocyte differentiation (red staining), in words (3T3-L1 / MEFs): low or no adipocyte differentiation; PPAR gamma modulating activity, in words [1]: higher potency"
COc1ccccc1[C@H]1OC(C)(C)OC[C@H]1C/C=C\CCCCC(=O)O [compound 37],0,PPAR [1]: Inactive
O=C(O)CC/C=C\C[C@@H]1COC(c2coc3ccc(Cl)cc3c2=O)O[C@@H]1c1ccccc1O (stereo partly drawn) [compound 13],−1,"induction of adipocyte differentiation (red staining), in words (3T3-L1 / MEFs): low or no adipocyte differentiation; PPAR gamma modulating activity, in words [1]: higher potency"
"CN(CCOc1ccc(CC2SC(=O)NC2=O)cc1)c1ccccn1 (stereo not drawn) [rosiglitazone, reference compound]",,"PPAR transactivation, fold higher than with DMSO alone ([1]; Gal4-PPARgammaLBD, DPD at 10 microM): over 40 fold"
COc1cccc([C@H]2OC[C@@H](C/C=C\CCC(=O)O)[C@@H](c3ccccc3O)O2)c1OC (mixture of isomers) [compound 19],0,
COc1ccccc1[C@H]1O[C@@H](c2c(Cl)cccc2Cl)OC[C@H]1C/C=C\CCC(=O)O [compound 28],,PPAR [1]: Inactive
